From ChEMBL document CHEMBL3046656, “Apoptotic effects of some carbazole derivatives on lung carcinoma and glioma cell lines” (Med Chem Res, 2013)
Values after ≈ are worked out from the molar mass of the structure shown. Active and inactive are the calls of the source. The calls are words filed in the database; no cut-off is given here.

Each compound was assayed on A549 (assay: Induction of apoptosis in Homo sapiens (human) A549 cells assessed as viable cells at IC50 after 24 hr by annexin V FITC/propidium iodide staining-based FACS flow cytometric analysis (reference value: 96.5%)). Conditions: not given.
Assay type: functional

In order of falling Activity:
1. CCn1c2ccccc2c2cc(NC(=O)CSC(=S)N3CCN(C)CC3)ccc21  94.5%
2. CCn1c2ccccc2c2cc(NC(=O)CSC(=S)N3CCCCC3C)ccc21 (stereo not drawn)  93.3%
3. CCn1c2ccccc2c2cc(NC(=O)CSC(=S)N3CCN(CCN(C)C)CC3)ccc21  65%

What follows are compounds tested on C6 (assay: Inhibition of nuclear DNA synthesis in Rattus norvegicus (rat) C6 cells assessed as decrease in bromodeoxyuridine incorporation measured during S phase at IC50 after 24 hr by ELISA). Conditions: not given.
Assay type: functional

With `O=C1c2c(O)ccc(O)c2C(=O)c2c(NCCNCCO)ccc(NCCNCCO)c21` [MITOXANTRONE] the “inhibition (INH)” value was 84.6%.

What follows are compounds tested on C6 (assay: Induction of apoptosis in Rattus norvegicus (rat) C6 cells assessed as late apoptotic cells at IC50 after 24 hr by annexin V FITC/propidium iodide staining-based FACS flow cytometric analysis (reference value: 1.1%)). Conditions: not given.
Assay type: functional

In order of falling Activity:
1. CCn1c2ccccc2c2cc(NC(=O)CSC(=S)N3CCN(CCN(C)C)CC3)ccc21  11.5%
2. CCn1c2ccccc2c2cc(NC(=O)CSC(=S)N3CCN(C)CC3)ccc21  8.8%
3. CCn1c2ccccc2c2cc(NC(=O)CSC(=S)N3CCCCC3C)ccc21 (stereo not drawn)  5.1%

These compounds were tested on A549 (assay: Inhibition of nuclear DNA synthesis in Homo sapiens (human) A549 cells assessed as decrease in bromodeoxyuridine incorporation measured during S phase after 24 hr by ELISA). Conditions: not given.
Assay type: functional, cell-based

For `CCn1c2ccccc2c2cc(NC(=O)CSC(=S)N3CCN(CCN(C)C)CC3)ccc21`, the inhibition was “Dose-dependent effect”.
For `CCn1c2ccccc2c2cc(NC(=O)CSC(=S)N3CCCC3)ccc21`, the inhibition was “Dose-dependent effect”.
For `CCn1c2ccccc2c2cc(NC(=O)CSC(=S)N3CCOCC3)ccc21`, the inhibition was “Dose-dependent effect”.
For `O=C1c2c(O)ccc(O)c2C(=O)c2c(NCCNCCO)ccc(NCCNCCO)c21` [MITOXANTRONE], the inhibition was “Dose-dependent effect”.
In the case of `CCn1c2ccccc2c2cc(NC(=O)CSC(=S)N3CCCCC3C)ccc21` (stereo not drawn), the inhibition is reported as “Dose-dependent effect”.
`CCn1c2ccccc2c2cc(NC(=O)CSC(=S)N3CCN(C)CC3)ccc21` was tested, and the inhibition was “Dose-dependent effect”.

The compounds below were run on C6 (assay: Induction of apoptosis in Rattus norvegicus (rat) C6 cells assessed as early apoptotic cells at IC50 after 24 hr by annexin V FITC/propidium iodide staining-based FACS flow cytometric analysis (reference value: 0.5%)). Conditions: not given.
Assay type: functional

In order of rising Activity:
1. CCn1c2ccccc2c2cc(NC(=O)CSC(=S)N3CCCCC3C)ccc21 (stereo not drawn)  6.2%
2. CCn1c2ccccc2c2cc(NC(=O)CSC(=S)N3CCN(C)CC3)ccc21  7.3%
3. CCn1c2ccccc2c2cc(NC(=O)CSC(=S)N3CCN(CCN(C)C)CC3)ccc21  83.7%

Each compound was assayed against Acetylcholinesterase (Electrophorus electricus, UniProt O42275) (assay: Inhibition of Electrophorus electricus (electric eel) AChE using acetylthiocholine iodide as substrate incubated for 15 min prior to substrate addition measured after 30 min by Ellman's spectrophotometric method). Conditions: not given.
Sequence of Acetylcholinesterase (O42275 whole entry): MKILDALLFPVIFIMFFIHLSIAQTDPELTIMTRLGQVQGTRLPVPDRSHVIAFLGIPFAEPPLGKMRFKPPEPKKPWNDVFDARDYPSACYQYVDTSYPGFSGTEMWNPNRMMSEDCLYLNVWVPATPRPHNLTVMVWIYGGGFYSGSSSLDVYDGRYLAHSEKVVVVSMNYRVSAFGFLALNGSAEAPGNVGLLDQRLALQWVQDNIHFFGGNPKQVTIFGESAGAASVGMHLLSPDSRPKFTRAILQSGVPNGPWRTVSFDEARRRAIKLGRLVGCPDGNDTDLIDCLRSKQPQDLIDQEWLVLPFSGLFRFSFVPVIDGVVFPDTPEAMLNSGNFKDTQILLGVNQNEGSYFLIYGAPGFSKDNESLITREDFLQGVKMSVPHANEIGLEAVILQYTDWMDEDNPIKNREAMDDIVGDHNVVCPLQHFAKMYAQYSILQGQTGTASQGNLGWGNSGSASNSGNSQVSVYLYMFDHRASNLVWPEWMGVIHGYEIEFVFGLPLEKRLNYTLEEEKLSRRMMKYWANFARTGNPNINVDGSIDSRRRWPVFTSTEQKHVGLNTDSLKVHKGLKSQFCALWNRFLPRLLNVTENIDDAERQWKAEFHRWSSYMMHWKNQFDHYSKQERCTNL

Compared with `CCn1c2ccccc2c2cc(NC(=O)CSC(=S)N3CCN(CCN(C)C)CC3)ccc21`, `CCn1c2ccccc2c2cc(NC(=O)CSC(=S)N3CCN(C)CC3)ccc21` is higher in IC50: 15.5 µM for the first, greater than 188 µM for the second. The first is the more potent here.

`CCn1c2ccccc2c2cc(NC(=O)CSC(=S)N3CCCC3)ccc21` and `CCn1c2ccccc2c2cc(NC(=O)CSC(=S)N3CCOCC3)ccc21` cannot be ordered by IC50: greater than 201 µM for the first, greater than 193 µM for the second.

`CCn1c2ccccc2c2cc(NC(=O)CSC(=S)N3CCCCC3C)ccc21` (stereo not drawn) gave an IC50 greater than 188 µM.

The compounds below were run against Acetylcholinesterase (Electrophorus electricus) (UniProt O42275) (assay: Inhibition of Electrophorus electricus (electric eel) AChE using acetylthiocholine iodide as substrate at 80 ug/mL incubated for 15 min prior to substrate addition measured after 30 min by Ellman's spectrophotometric method relative to control). Conditions: not given.
Sequence of Acetylcholinesterase (Electrophorus electricus) (O42275 24-633 limits assumed): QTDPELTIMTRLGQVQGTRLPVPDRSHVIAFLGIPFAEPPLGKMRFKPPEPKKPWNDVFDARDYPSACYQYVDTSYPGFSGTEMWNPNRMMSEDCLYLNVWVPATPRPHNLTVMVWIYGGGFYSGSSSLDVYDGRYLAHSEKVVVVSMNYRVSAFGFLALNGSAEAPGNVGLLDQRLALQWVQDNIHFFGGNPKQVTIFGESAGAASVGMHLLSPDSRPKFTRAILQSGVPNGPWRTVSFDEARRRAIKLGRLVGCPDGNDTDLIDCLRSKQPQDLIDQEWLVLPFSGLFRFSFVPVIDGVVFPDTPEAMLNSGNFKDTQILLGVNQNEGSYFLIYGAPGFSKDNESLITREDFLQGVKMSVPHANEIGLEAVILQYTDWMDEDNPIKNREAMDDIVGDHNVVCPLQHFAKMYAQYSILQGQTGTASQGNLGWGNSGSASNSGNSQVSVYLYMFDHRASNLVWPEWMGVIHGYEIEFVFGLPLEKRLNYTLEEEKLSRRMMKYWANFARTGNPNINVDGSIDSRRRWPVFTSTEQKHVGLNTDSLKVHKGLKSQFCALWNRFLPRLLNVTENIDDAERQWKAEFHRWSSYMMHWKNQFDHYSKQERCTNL

In order of falling inhibition:
1. CCn1c2ccccc2c2cc(NC(=O)CSC(=S)N3CCN(CCN(C)C)CC3)ccc21  91.3%
2. CCn1c2ccccc2c2cc(NC(=O)CSC(=S)N3CCN(C)CC3)ccc21  21.1%
3. CCn1c2ccccc2c2cc(NC(=O)CSC(=S)N3CCCCC3C)ccc21 (stereo not drawn)  18%
4. CCn1c2ccccc2c2cc(NC(=O)CSC(=S)N3CCOCC3)ccc21  15.4%
5. CCn1c2ccccc2c2cc(NC(=O)CSC(=S)N3CCCC3)ccc21  9.05%

What follows are compounds tested on C6 (assay: Inhibition of nuclear DNA synthesis in Rattus norvegicus (rat) C6 cells assessed as decrease in bromodeoxyuridine incorporation measured during S phase at 3.9 to 7.8 ug/mL after 24 hr by ELISA). Conditions: not given.
Assay type: functional

In the case of `CCn1c2ccccc2c2cc(NC(=O)CSC(=S)N3CCN(CCN(C)C)CC3)ccc21`, the “inhibition (INH)” value is reported as 87.1%.

These compounds were tested on C6 (assay: Cytotoxicity against Rattus norvegicus (rat) C6 cells after 24 hr by MTT assay). Conditions: C6, 24 h.
Assay type: functional, cell-based

In order of rising IC50:
1. CCn1c2ccccc2c2cc(NC(=O)CSC(=S)N3CCN(CCN(C)C)CC3)ccc21  5.9 µg/mL (≈ 12.2 µM)
2. O=C1c2c(O)ccc(O)c2C(=O)c2c(NCCNCCO)ccc(NCCNCCO)c21 [MITOXANTRONE]  10.9 µg/mL (≈ 24.5 µM)
3. CCn1c2ccccc2c2cc(NC(=O)CSC(=S)N3CCN(C)CC3)ccc21  21.3 µg/mL (≈ 49.9 µM)
4. CCn1c2ccccc2c2cc(NC(=O)CSC(=S)N3CCCCC3C)ccc21 (stereo not drawn)  26.7 µg/mL (≈ 62.7 µM)
5. CCn1c2ccccc2c2cc(NC(=O)CSC(=S)N3CCCC3)ccc21  75 µg/mL (≈ 189 µM)
6. CCn1c2ccccc2c2cc(NC(=O)CSC(=S)N3CCOCC3)ccc21  180 µg/mL (≈ 435 µM)

What follows are compounds tested on C6 (assay: Inhibition of nuclear DNA synthesis in Rattus norvegicus (rat) C6 cells assessed as decrease in bromodeoxyuridine incorporation measured during S phase after 24 hr by ELISA). Conditions: not given.
Assay type: functional, cell-based

With `CCn1c2ccccc2c2cc(NC(=O)CSC(=S)N3CCN(CCN(C)C)CC3)ccc21` the inhibition was “Dose-dependent effect”.
`CCn1c2ccccc2c2cc(NC(=O)CSC(=S)N3CCCC3)ccc21` was tested, and the inhibition was “Dose-dependent effect”.
With `CCn1c2ccccc2c2cc(NC(=O)CSC(=S)N3CCOCC3)ccc21` the inhibition was “Dose-dependent effect”.
In the case of `O=C1c2c(O)ccc(O)c2C(=O)c2c(NCCNCCO)ccc(NCCNCCO)c21` [MITOXANTRONE], the inhibition is reported as “Dose-dependent effect”.
With `CCn1c2ccccc2c2cc(NC(=O)CSC(=S)N3CCCCC3C)ccc21` (stereo not drawn) the inhibition was “Dose-dependent effect”.
`CCn1c2ccccc2c2cc(NC(=O)CSC(=S)N3CCN(C)CC3)ccc21` was tested, and the inhibition was “Dose-dependent effect”.

What follows are compounds tested on A549 (assay: Induction of necrosis in Homo sapiens (human) A549 cells at IC50 after 24 hr by annexin V FITC/propidium iodide staining-based FACS flow cytometric analysis relative to untreated control). Conditions: not given.
Assay type: functional

In order of rising Activity:
1. CCn1c2ccccc2c2cc(NC(=O)CSC(=S)N3CCCCC3C)ccc21 (stereo not drawn)  2.9%
2. CCn1c2ccccc2c2cc(NC(=O)CSC(=S)N3CCN(C)CC3)ccc21  3.3%
3. CCn1c2ccccc2c2cc(NC(=O)CSC(=S)N3CCN(CCN(C)C)CC3)ccc21  16.6%

What follows are compounds tested on A549 (assay: Inhibition of nuclear DNA synthesis in Homo sapiens (human) A549 cells assessed as decrease in bromodeoxyuridine incorporation measured during S phase at IC50 after 24 hr by ELISA). Conditions: not given.
Assay type: functional

For `O=C1c2c(O)ccc(O)c2C(=O)c2c(NCCNCCO)ccc(NCCNCCO)c21` [MITOXANTRONE], the “inhibition (INH)” value was 67.3%.

These compounds were tested on A549 (assay: Induction of apoptosis in Homo sapiens (human) A549 cells assessed as late apoptotic cells at IC50 after 24 hr by annexin V FITC/propidium iodide staining-based FACS flow cytometric analysis (reference value: 0.4%)). Conditions: not given.
Assay type: functional

In order of rising Activity:
1. CCn1c2ccccc2c2cc(NC(=O)CSC(=S)N3CCN(C)CC3)ccc21  0.4%
2. CCn1c2ccccc2c2cc(NC(=O)CSC(=S)N3CCCCC3C)ccc21 (stereo not drawn)  1%
3. CCn1c2ccccc2c2cc(NC(=O)CSC(=S)N3CCN(CCN(C)C)CC3)ccc21  8.1%

The compounds below were run on NIH3T3 (assay: Cytotoxicity against Mus musculus (mouse) NIH/3T3 cells after 24 hr by MTT assay). Conditions: NIH3T3, 24 h.
Assay type: cell-based

In order of rising IC50:
1. CCn1c2ccccc2c2cc(NC(=O)CSC(=S)N3CCN(CCN(C)C)CC3)ccc21  44.3 µg/mL (≈ 91.6 µM)
2. CCn1c2ccccc2c2cc(NC(=O)CSC(=S)N3CCN(C)CC3)ccc21  48.7 µg/mL (≈ 114 µM)
3. CCn1c2ccccc2c2cc(NC(=O)CSC(=S)N3CCOCC3)ccc21  127 µg/mL (≈ 306 µM)
4. CCn1c2ccccc2c2cc(NC(=O)CSC(=S)N3CCCCC3C)ccc21 (stereo not drawn)  257 µg/mL (≈ 603 µM)
5. CCn1c2ccccc2c2cc(NC(=O)CSC(=S)N3CCCC3)ccc21  270 µg/mL (≈ 679 µM)

These compounds were tested on A549 (assay: Inhibition of nuclear DNA synthesis in Homo sapiens (human) A549 cells assessed as decrease in bromodeoxyuridine incorporation measured during S phase at 15.6 to 62.5 ug/mL after 24 hr by ELISA). Conditions: not given.
Assay type: functional

In order of falling “inhibition (INH)” value:
1. CCn1c2ccccc2c2cc(NC(=O)CSC(=S)N3CCCCC3C)ccc21 (stereo not drawn)  71.2%
2. CCn1c2ccccc2c2cc(NC(=O)CSC(=S)N3CCN(CCN(C)C)CC3)ccc21  53.4%
3. CCn1c2ccccc2c2cc(NC(=O)CSC(=S)N3CCN(C)CC3)ccc21  46.6%

`CCn1c2ccccc2c2cc(NC(=O)CSC(=S)N3CCCC3)ccc21` was tested, and the inhibition was “Active”.
`CCn1c2ccccc2c2cc(NC(=O)CSC(=S)N3CCOCC3)ccc21` was tested, and the inhibition was “Active”.

The compounds below were run on C6 (assay: Induction of apoptosis in Rattus norvegicus (rat) C6 cells assessed as viable cells at IC50 after 24 hr by annexin V FITC/propidium iodide staining-based FACS flow cytometric analysis (reference value: 96.4%)). Conditions: not given.
Assay type: functional

In order of rising Activity:
1. CCn1c2ccccc2c2cc(NC(=O)CSC(=S)N3CCN(CCN(C)C)CC3)ccc21  4.7%
2. CCn1c2ccccc2c2cc(NC(=O)CSC(=S)N3CCN(C)CC3)ccc21  82.3%
3. CCn1c2ccccc2c2cc(NC(=O)CSC(=S)N3CCCCC3C)ccc21 (stereo not drawn)  88.3%

These compounds were tested on C6 (assay: Induction of necrosis in Rattus norvegicus (rat) C6 cells at IC50 after 24 hr by annexin V FITC/propidium iodide staining-based FACS flow cytometric analysis relative to untreated control). Conditions: not given.
Assay type: functional

In order of rising Activity:
1. CCn1c2ccccc2c2cc(NC(=O)CSC(=S)N3CCN(C)CC3)ccc21  0%
2. CCn1c2ccccc2c2cc(NC(=O)CSC(=S)N3CCN(CCN(C)C)CC3)ccc21  0.2%
3. CCn1c2ccccc2c2cc(NC(=O)CSC(=S)N3CCCCC3C)ccc21 (stereo not drawn)  0.3%

These compounds were tested on A549 (assay: Induction of apoptosis in Homo sapiens (human) A549 cells assessed as early apoptotic cells at IC50 after 24 hr by annexin V FITC/propidium iodide staining-based FACS flow cytometric analysis (reference value: 0.5%)). Conditions: not given.
Assay type: functional

In order of rising Activity:
1. CCn1c2ccccc2c2cc(NC(=O)CSC(=S)N3CCN(C)CC3)ccc21  1.8%
2. CCn1c2ccccc2c2cc(NC(=O)CSC(=S)N3CCCCC3C)ccc21 (stereo not drawn)  2.8%
3. CCn1c2ccccc2c2cc(NC(=O)CSC(=S)N3CCN(CCN(C)C)CC3)ccc21  10.3%

These compounds were tested on C6 (assay: Inhibition of nuclear DNA synthesis in Rattus norvegicus (rat) C6 cells assessed as decrease in bromodeoxyuridine incorporation measured during S phase at 15.6 to 31.2 ug/mL after 24 hr by ELISA). Conditions: not given.
Assay type: functional

In order of rising “inhibition (INH)” value:
1. CCn1c2ccccc2c2cc(NC(=O)CSC(=S)N3CCN(C)CC3)ccc21  45.5%
2. CCn1c2ccccc2c2cc(NC(=O)CSC(=S)N3CCCCC3C)ccc21 (stereo not drawn)  48.3%

Each compound was assayed on A549 (assay: Cytotoxicity against Homo sapiens (human) A549 cells after 24 hr by MTT assay). Conditions: A549, 24 h.
Assay type: functional, cell-based

In order of falling IC50:
1. CCn1c2ccccc2c2cc(NC(=O)CSC(=S)N3CCCC3)ccc21  193 µg/mL (≈ 486 µM)
2. CCn1c2ccccc2c2cc(NC(=O)CSC(=S)N3CCN(CCN(C)C)CC3)ccc21  41 µg/mL (≈ 84.8 µM)
3. CCn1c2ccccc2c2cc(NC(=O)CSC(=S)N3CCN(C)CC3)ccc21  34.3 µg/mL (≈ 80.4 µM)
4. CCn1c2ccccc2c2cc(NC(=O)CSC(=S)N3CCCCC3C)ccc21 (stereo not drawn)  29.3 µg/mL (≈ 68.8 µM)
5. CCn1c2ccccc2c2cc(NC(=O)CSC(=S)N3CCOCC3)ccc21  25.7 µg/mL (≈ 62.1 µM)
6. O=C1c2c(O)ccc(O)c2C(=O)c2c(NCCNCCO)ccc(NCCNCCO)c21 [MITOXANTRONE]  25.3 µg/mL (≈ 56.9 µM)
